Patent publication US4650788A, “Novel peptides having an immunostimulating action, processes for their preparation and their use” (Hoechst Aktiengesellschaft, priority 1983, dated 1987)
Square brackets hold non-standard residues; d marks the D form. Peptide text beside a SMILES is read from it.

Key:
[1] = test system: spleen cells of mice (B lymphocytes), in vitro immunization with sheep erythrocytes; test: plaque-forming cell test (PFC test); assay type: cell-based; conditions: Dosage 100 ng/substance/1 ml of cell culture; mouse spleen cell culture, 5 days; untreated control 221 ± 30
Method: […]. The in vitro immunization is effected with 5×10^7 sheep erythrocytes/ml. The test cell cultures are incubated daily with the corresponding dose of the test substance.
After a running time of 5 days, the cells are centrifuged off and washed with medium RPMI 1640 and the direct PFC test is carried out. For this, the cells are mixed with a 10% sheep erythrocyte suspension in an agarose solution and the mixture is poured onto a flat surface. In the layer of gel formed, the stimulated lymphocytes release antibodies during subsequent incubation, and these diffuse into the environment and attach themselves to the sheep erythrocytes therein. After addition of guinea pig complement, the red blood cells lyse. Light-colored round spots which can be seen with the naked eye form in the reddish-brown gel, i.e. the hemolysis areolas of the plaques. An antibody-producing cell is found in the center of such hemolysis areolas. The number of lymphoid cells which form specific immunoglobulins can consequently be equated with the numbers of plaques found.

[2] = test system: lymphocytes (T cells); test: PHA stimulation test (lymphocyte transformation test); assay type: cell-based; conditions: Dosage 100 ng/substance/1 ml of cell culture; 10 μg of PHA/1 ml, 72 hours; untreated control 1.00
Description: In the PHA stimulation test (PHA=phytohemagglutinin) or the lymphocyte transformation test, conclusions as to the number of mature, i.e. stimulatable, lymphocytes are drawn not via investigation of the surface antigens but by the function test for ability to be stimulated by the plant lectin PHA. The lymphocytes (T cells) are stimulated to […] transformation by the lectin, in the same way as by bacterial or viral antigens. This leads to proliferation, either directly or by the release of lymphokins. The incorporation of the radiolabeled thymidine within a certain time is then a measure of the number of stimulated cells. Only the mature or immunologically potent T cells are stimulated. The influence of a substance on lymphocyte maturation can therefore be monitored with this test. However, the stimulation must be sub-optimum, since other sub-populations of lymphocytes are also stimulated at higher concentrations and the effect can no longer be observed. The peptides to be investigated have been added to the culture medium in various concentrations. They are present throughout the entire duration of the test (up to 72 hours).

Row | SMILES | PFC/10^6 cells [1] | PHA stimulation index [2]
1 | CC(C)[C@H]1NC(=O)[C@H](CCC(=O)O)NC(=O)[C@H](CCCCN)NC(=O)[C@H](CCCNC(=N)N)NC(=O)[C@H](Cc2ccc(O)cc2)NC1=O [cyclo-(Arg--Lys--Glu--D-Val--Tyr), cyclo-(Arg-Lys-Glu-D-Val-Tyr).2 HOAc] (cyclo(E[dV]YRK)) | 687 ± 73 PFC/10^6 cells | 1.92
2 | CC(C)[C@@H]1NC(=O)[C@H](CCC(=O)O)NC(=O)[C@H](CCCNC(=N)N)NC(=O)[C@@H](CCCCN)NC(=O)[C@H](Cc2ccc(O)cc2)NC1=O [cyclo-(D-Lys--Arg--Glu--Val--Tyr)] (cyclo(EVY[dK]R)) | 317 ± 41 PFC/10^6 cells | 1.15
3 | CC(C)[C@H]1NC(=O)[C@H](CC(=O)O)NC(=O)[C@H](CCCCN)NC(=O)[C@H](CCCNC(=N)N)NC(=O)[C@H](Cc2c[nH]c3ccccc23)NC1=O [cyclo-(Arg--Lys--Asp--D-Val--Trp)] (cyclo(D[dV]WRK)) | 312 ± 58 PFC/10^6 cells | –
4 | CC(C)[C@H]1NC(=O)[C@H](CC(=O)O)NC(=O)[C@H](CCCCN)NC(=O)[C@H](CCCNC(=N)N)NC(=O)[C@H](Cc2ccc(O)cc2)NC1=O [cyclo-(Arg--Lys--Asp--D-Val--Tyr), cyclo-(Arg-Lys-Asp-D-Val-Tyr).2HOAc] (cyclo(D[dV]YRK)) | 401 ± 64 PFC/10^6 cells | 1.69
5 | CC(C)[C@H]1NC(=O)[C@H](CCC(=O)O)NC(=O)[C@H](CCCCN)NC(=O)[C@H](CCCNC(=N)N)NC(=O)[C@H](Cc2c[nH]c3ccccc23)NC1=O [cyclo-(Arg--Lys--Glu--D-Val--Trp)] (cyclo(E[dV]WRK)) | 369 ± 54 PFC/10^6 cells | 1.25
6 | CC(C)[C@@H]1NC(=O)[C@H](CCC(=O)O)NC(=O)[C@H](CCCCN)NC(=O)[C@H](CCCNC(=N)N)NC(=O)[C@@H](Cc2ccccc2)NC1=O [cyclo-(Arg--Lys--Glu--Val--D-Phe)] (cyclo(EV[dF]RK)) | 250 ± 31 PFC/10^6 cells | –
7 | CC(C)[C@@H]1NC(=O)[C@H](CC(=O)O)NC(=O)[C@H](CCCNC(=N)N)NC(=O)[C@@H](CCCCN)NC(=O)[C@H](Cc2ccc(O)cc2)NC1=O [cyclo-(D-Lys--Arg--Asp--Val--Tyr)] (cyclo(DVY[dK]R)) | 341 ± 43 PFC/10^6 cells | –
